Results published in paper PMC12909347, “Disconnect between in vitro and in vivo efficacy of the MPS1 inhibitor NTRC 0066-0 against glioblastoma” (Cellular Oncology, 2026).

Tests used:
MPS1 = system: MPS1; set-up: method as in PMID 23940287; settings: reported; cited from earlier work
[1] = system: orthotopic E98 GBM tumors; experiment: Orthotopic E98 GBM xenograft efficacy in Abcb1a/b;Abcg2-/- mice; assay type: in vivo; settings: TMZ + RT given at tumor size 10^7-10^8 p/s
Description: Orthotopic GBM tumors were induced in Abcb1a/b; Abcg2^−/− mice by stereotactic injection of E98 cells expressing firefly luciferase (200,000 cells in 2 µL HBSS (Life Technologies) at an injection speed of 1 µL/min) at 2 mm lateral, 1 mm anterior and 3 mm ventral to the bregma. Tumor growth was monitored using bioluminescence imaging by injecting D-luciferin (150 mg/kg i.p.; Promega, Madison, WI) and subsequently imaging mice on an IVIS Spectrum Imaging System (PerkinElmer, Waltham, MA). Survival was monitored daily and the humane endpoint was defined as body weight loss exceeding 20%. Time-to-recurrence was defined as the number of days elapsed until the tumor regained its pre-treatment size. Tumors were treated with CT-guided radiotherapy (2–3.5 Gy per fraction) using an X-RAD 225Cx system (Precision X-Ray, North Branford, CT), temozolomide (10 mg/kg p.o. freshly prepared from powder in an aqueous solution containing 10% v/v ethanol), NTRC0066-0 (20, 10 or 5 mg/kg p.o. in an aqueous solution containing 10% v/v DMSO and 10% v/v Cremophor EL (Life Technologies)) or different combinations thereof, as described per experiment in the Figure legends.

For `COc1cc(N2CCC(O)CC2)ccc1Nc1nc(Nc2ccccc2S(=O)(=O)C(C)C)c2[nH]cnc2n1` [MPS1-IN-3], the “IC50s (intrinsic potency)” value (MPS1) is given as “micromolar range”.

With `Cn1nnc2c(C(N)=O)ncn2c1=O` [TMZ, temozolomide, reference compound] the “Tumor bioluminescence signal after regression” value [1] was “about 10^5 p/s”.
